In PubChem BioAssay AID463151 (The Scripps Research Institute Molecular Screening Center, 2010):
Activity calls are given as the source filed them. No rule for the calls is given here.

Biological target: Nuclear receptor ROR-gamma (Homo sapiens) (UniProt P51449)
Assay: RORG inhibitor potency, late-stage follow-up, selectivity assay for RORA inverse agonist project, cell-based, luminescence, dose response (AID 463151)
Settings: cell-based RORG luciferase reporter

Nuclear receptor ROR-gamma (Homo sapiens), sequence (P51449 whole entry, looked up): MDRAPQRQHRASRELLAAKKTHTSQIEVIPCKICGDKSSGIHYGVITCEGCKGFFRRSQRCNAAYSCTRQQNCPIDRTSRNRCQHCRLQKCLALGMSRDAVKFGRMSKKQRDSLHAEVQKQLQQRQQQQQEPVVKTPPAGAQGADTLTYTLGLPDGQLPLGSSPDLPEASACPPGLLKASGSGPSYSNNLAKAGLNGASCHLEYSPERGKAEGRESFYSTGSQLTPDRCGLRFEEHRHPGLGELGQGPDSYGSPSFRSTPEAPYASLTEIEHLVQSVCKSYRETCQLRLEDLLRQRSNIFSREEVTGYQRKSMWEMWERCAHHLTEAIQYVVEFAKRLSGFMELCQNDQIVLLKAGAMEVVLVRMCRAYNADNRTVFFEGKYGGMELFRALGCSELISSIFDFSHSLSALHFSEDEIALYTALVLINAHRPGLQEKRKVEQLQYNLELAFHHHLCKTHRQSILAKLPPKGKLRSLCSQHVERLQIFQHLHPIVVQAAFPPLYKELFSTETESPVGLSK

`O=S(=O)(Nc1ccc(C(O)(C(F)(F)F)C(F)(F)F)cc1)c1cccs1` was tested, and the IC50 was > 10 µM (inactive).
